# Assay results: US20140121100A1, “COMPOSITIONS AND METHODS FOR ENHANCING PLANT GROWTH” (NOVOZYMES BIOAG A/S, priority 2012, published 2014)
# Where two headings read alike, the source gives them in different places.
# How the values were obtained:
# soybean = soybean roots; seed treatment; petriplates, dark, 24° C., 7 days
# Procedure: (§1) Seeds of chickpea, cotton, pinto bean and soybean were treated according to the protocols of Example 1. One day after seed treatment, 10 seeds of each crop variety were plated in 150 mm×15 mm polystyrene petriplates (Fisherband) on 5⅜″ germination paper circle (Anchor Paper Co., Saint Paul, Mn) moistened with 12 ml distilled water. Four petriplates were prepared per treatment as 4 replicates. Petri plates were then placed in the dark in under-counter cabinets in the lab at 24° C. for 7 days. After 7 days, seedlings were removed from the cabinets, exposed to light, and their main roots severed and measured for various root parameters with WinRhizo root scanner (Regent Instruments Inc., WinRhizo Pro 2007). For all statistical analysis, student t-test was applied using JMPv.9 statistical software.
# chickpea = chickpea roots; seed treatment; petriplates, dark, 24° C., 7 days
# Procedure: as §1
# corn seedling growth [1] = settings: for Plant root dry weight / Plant shoot dry weight / Total plant dry weight / Chlorophyll content: 2 weeks after; for Chlorophyll content: SPAD chlorophyll meter; for Plant height: one wk after (8 days after planting)
# Procedure: In a clear plastic bag (25 cm×25 cm), 100 gram seeds were treated with 1 ml of water (as control) and 1 mL of the 100, 200, and 500 mg/L treatment solutions separately and shaken vigorously. One day following treatment, seeds were planted in 6″ plastic pots containing sand:perlite 1:1 mix. There were 10 pots/treatment; each pot being a replicate. Plant height was measured 8 days after planting. Plant leaf greenness and final harvest were made 2 weeks after planting. Plant leaf greenness was measured using a SPAD chlorophyll meter (Spectrum Technology, USA).
# corn = settings: GSH 100 mg/L seed treatment; petriplates, dark, 24° C., 7 days
# Procedure: as §1, with “Instead” for “Seeds”, “growing the seeds in a greenhouse, the seeds” for “chickpea, cotton, pinto bean and soybean”, “grown” for “treated according to the protocols of Example 1. One day after seed treatment, 10 seeds of each crop variety were plated”, “[…]” for “150”
# corn seedling growth [2] = assay: Effect of GSH and LCO on corn seedling growth (greenhouse pots, WinRhizo); type: in vivo; settings: seed treatment (LCO 10^−8M), harvested after 2 weeks
# Procedure: LCO stock solution was prepared by dissolving LCO in 50:50 ethanol/water solvent. Seeds were then treated according to the protocols of Example 1. Seeds were planted 1 day after treatment in greenhouse under artificial lighting in 5'' plastic pots containing 1:1 sand/perlite mix. […] Plants were allowed to grow for 2 weeks and then harvested. A non-destructive harvest was made by washing sand/perlite soil mix under running tap water. After cleaning, each plant was placed on a clear plexiglass-tray containing enough water to spread the roots in liquid. The tray was then placed on the WinRhizo root scanner (Regent Instruments Inc., WinRhizo Pro 2007) for measurement.
structure (smiles),measurement,setting,value
"N[C@@H](CCC(=O)N[C@@H](CS)C(=O)NCC(=O)O)C(=O)O [GSH, glutathione]",Length,soybean,146.373a cm
same,Surface area,soybean,25.691a cm^2
same,Length,chickpea,94.671a cm
same,Surface area,chickpea,23.142a cm^2
same,Plant root dry weight,corn seedling growth [1]; GSH 100 mg/L seed treatment,0.244a mg
same,Plant shoot dry weight,corn seedling growth [1]; GSH 100 mg/L seed treatment,0.3111ab mg
same,Total plant dry weight,corn seedling growth [1]; GSH 100 mg/L seed treatment,0.555a mg
same,Chlorophyll content,corn seedling growth [1]; GSH 100 mg/L seed treatment,27.93a
same,Plant height,corn seedling growth [1]; GSH 100 mg/L seed treatment,12.07a cm
same,Plant root dry weight,corn seedling growth [1]; GSH 200 mg/L seed treatment,0.231ab mg
same,Plant shoot dry weight,corn seedling growth [1]; GSH 200 mg/L seed treatment,0.3116ab mg
same,Total plant dry weight,corn seedling growth [1]; GSH 200 mg/L seed treatment,0.542a mg
same,Chlorophyll content,corn seedling growth [1]; GSH 200 mg/L seed treatment,27.55a
same,Plant height,corn seedling growth [1]; GSH 200 mg/L seed treatment,11.91a cm
same,Plant root dry weight,corn seedling growth [1]; GSH 500 mg/L seed treatment,0.266b mg
same,Plant shoot dry weight,corn seedling growth [1]; GSH 500 mg/L seed treatment,0.339a mg
same,Total plant dry weight,corn seedling growth [1]; GSH 500 mg/L seed treatment,0.565a mg
same,Chlorophyll content,corn seedling growth [1]; GSH 500 mg/L seed treatment,27.83a
same,Plant height,corn seedling growth [1]; GSH 500 mg/L seed treatment,11.66ab cm
same,"Length, Total",corn,21.890a* cm
same,"Volume, Total",corn,0.150a* cm^3
same,Coleoptile Length,corn seedling growth [2],9.814b cm
same,Coleoptile Surface area,corn seedling growth [2],1.789b cm^2
same,Coleoptile Volume,corn seedling growth [2],0.236b cm^2
same,Root Diameter,corn seedling growth [2],0.653a mm
same,Root Length,corn seedling growth [2],150.89a cm
same,Root Surface area,corn seedling growth [2],30.47a cm^2
same,Root Volume,corn seedling growth [2],0.494a cm^2
